Measurements published in the supplement of paper PMC10307832.

How the values were obtained:
Assay in all cases: relative viability (nuclei count vs DMSO), 5 days (fraction); higher = more cells survive
Gemcitabine + Luminespib = compound: Nc1ccn([C@@H]2O[C@H](CO)[C@@H](O)C2(F)F)c(=O)n1 [Gemcitabine] + CCNC(=O)c1noc(-c2cc(C(C)C)c(O)cc2O)c1-c1ccc(CN2CCOCC2)cc1 [Luminespib] (partner 0.01 µM)
Summary of the method: (§1)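 Nuclei were stained with Hoechst during a one-step fixation (final 0.05% Triton X-100, 1% formaldehyde, 1 ug/ml Hoechst) carried out 5 days after dosing, then counted on 4× images. The cells, lung cancer lines in 1536-well plates, had been dosed by pin tool the day after seeding with one drug alone or a fixed anchor-drug dose plus five library-drug doses (not always all listed) in √10 steps. Relative viability is the nuclei count in treated wells divided by that in vehicle wells, and each value is the median of duplicate plates.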

Gemcitabine + Decitabine = compound: Nc1ccn([C@@H]2O[C@H](CO)[C@@H](O)C2(F)F)c(=O)n1 [Gemcitabine] + Nc1ncn([C@H]2C[C@H](O)[C@@H](CO)O2)c(=O)n1 [Decitabine] (partner 2 µM)
Summary of the method: as §1

Gemcitabine + Olaparib = compound: Nc1ccn([C@@H]2O[C@H](CO)[C@@H](O)C2(F)F)c(=O)n1 [Gemcitabine] + O=C(c1cc(Cc2n[nH]c(=O)c3ccccc23)ccc1F)N1CCN(C(=O)C2CC2)CC1 [Olaparib] (partner 8 µM)
Summary of the method: as §1

Gemcitabine + Lapatinib = compound: Nc1ccn([C@@H]2O[C@H](CO)[C@@H](O)C2(F)F)c(=O)n1 [Gemcitabine] + CS(=O)(=O)CCNCc1ccc(-c2ccc3ncnc(Nc4ccc(OCc5cccc(F)c5)c(Cl)c4)c3c2)o1 [Lapatinib] (partner 2 µM)
Summary of the method: as §1

Cell Line	relative viability (Gemcitabine + Luminespib; first compound 0.001 µM)	relative viability (Gemcitabine + Luminespib; first compound 0.003162 µM)	relative viability (Gemcitabine + Luminespib; first compound 0.01 µM)	relative viability (Gemcitabine + Luminespib; first compound 0.03162 µM)	relative viability (Gemcitabine + Luminespib; first compound 0.1 µM)	relative viability (Gemcitabine + Decitabine; first compound 0.001 µM)	relative viability (Gemcitabine + Decitabine; first compound 0.003162 µM)	relative viability (Gemcitabine + Decitabine; first compound 0.01 µM)	relative viability (Gemcitabine + Decitabine; first compound 0.03162 µM)	relative viability (Gemcitabine + Decitabine; first compound 0.1 µM)	relative viability (Gemcitabine + Olaparib; first compound 0.001 µM)	relative viability (Gemcitabine + Olaparib; first compound 0.003162 µM)	relative viability (Gemcitabine + Olaparib; first compound 0.01 µM)	relative viability (Gemcitabine + Olaparib; first compound 0.03162 µM)	relative viability (Gemcitabine + Olaparib; first compound 0.1 µM)	relative viability (Gemcitabine + Lapatinib; first compound 0.001 µM)	relative viability (Gemcitabine + Lapatinib; first compound 0.003162 µM)	relative viability (Gemcitabine + Lapatinib; first compound 0.01 µM)	relative viability (Gemcitabine + Lapatinib; first compound 0.03162 µM)	relative viability (Gemcitabine + Lapatinib; first compound 0.1 µM)
NCI-H441	0.343	0.332	0.198	0.189	0.177	0.208	0.212	0.17	0.167	0.127	0.651	0.241	0.187	0.161	0.116					
NCI-H1793	0.17	0.179	0.15	0.125	0.137	0.512	0.433	0.271	0.156	0.162	0.807	0.93	0.159	0.137	0.105	1.07	0.734	0.489	0.244	0.166
NCI-H23	0.214	0.212	0.192	0.175	0.217	0.284	0.237	0.155	0.157	0.136	0.293	0.132	0.0825	0.109	0.0995	0.794	0.601	0.14	0.159	0.109
HARA	0.683	0.847	0.719	0.0504	0.0409	0.593	0.702	0.373	0.279	0.131	0.927	1.1	0.535	0.162	0.0774	0.77	0.836	0.794	0.604	0.137
NCI-H1792	0.382	0.286	0.233	0.206	0.167	0.406	0.291	0.0943	0.0857	0.0713	0.578	0.0978	0.0544	0.112	0.0454	0.948	0.806	0.239	0.107	0.0773
NCI-H1703											0.359	0.266	0.0911	0.119	0.105	0.898	0.262	0.156	0.164	0.114
NCI-H1648						0.515	0.443	0.442	0.315	0.293	1.01	0.659	0.497	0.335	0.227					
CAL-12T	0.87	0.238	0.245	0.236	0.173						0.714	0.641	0.551	0.228	0.201	0.786	0.65	0.396	0.264	0.181
NCI-H727	0.312	0.288	0.352	0.207	0.342	0.846	0.477	0.569	0.451	0.47	0.816	0.592	0.35	0.464	0.426	0.843	0.561	0.262	0.239	0.281
NCI-H2085	0.435	0.477	0.369	0.298	0.263	0.583	0.507	0.486	0.425	0.428	0.756	0.786	0.699	0.597	0.426	0.811	0.811	0.668	0.434	0.302
NCI-H1395	0.739	0.607	0.391	0.361	0.343	0.736	0.592	0.47	0.422	0.365	0.438	0.452	0.423	0.351	0.34	1.02	0.725	0.448	0.32	0.33
SW 900	0.147	0.187	0.164	0.161	0.148	0.325	0.372	0.267	0.148	0.169	0.837	0.543	0.165	0.168	0.134					
NCI-H460	0.0273	0.0507	0.0367	0.0148	0.014	0.475	0.451	0.417	0.0447	0.0204	0.529	0.426	0.333	0.0343	0.022	1.05	1.11	0.278	0.0125	0.009
A549						0.292	0.274	0.0559	0.0266	0.0227	0.296	0.279	0.0098	0.0228	0.014	0.967	0.747	0.249	0.0488	0.033
IA-LM											0.854	0.788	0.797	0.0888	0.0689		0.853	0.353	0.124	0.0354
EKVX	1.06	0.727	0.456	0.182	0.115	0.3	0.256	0.18	0.193	0.14	0.898	0.672	0.289	0.174	0.11	0.238	0.354	0.111	0.116	0.12
ChaGo-K-1	0.603	0.474	0.259	0.183	0.186	0.517	0.467	0.337	0.205	0.187	0.471	0.452	0.22	0.182	0.146					
NCI-H1755	0.451	0.505	0.491	0.346	0.26	0.708	0.667	0.65	0.568	0.469	0.872	0.887	0.787	0.425	0.278	0.962	1.04	0.959	0.35	0.265
NCI-H2228	0.131	0.0993	0.14	0.149	0.124						0.627	0.333	0.152	0.144	0.0825	1.06	0.827	0.207	0.109	0.148
